Literature values, collected in US20020143065A1, “Developing a delivery system for multi-pharmaceutical active materials at various release rates” (priority 2000, published 2002).

How the values were obtained:
[1] = gynecological patients, intravenous patient-controlled analgesia
[2] = compared with tramadol racemate

SMILES	analgesic efficacy [1]	side effects (nausea and vomiting) [1]	opiate-like analgesic effect [2]
COc1cccc(C2(O)CCCCC2CN(C)C)c1 (racemic) [racemate, tramadol]	more efficacy than (−) tramadol enantiomer	no more side effects than (+) tramadol enantiomer	–
COc1cccc([C@@]2(O)CCCC[C@@H]2CN(C)C)c1 (single isomer, unassigned) [(+) enantiomer, (+) tramadol]	more potent in producing analgesia	produced more nausea and vomiting	considerably enhanced compared with that of tramadol
